The text below walks through data of patent US9138434B2, “Octahydrothienoquinoline derivative, pharmaceutical composition comprising derivative, and use of these” (KISSEI PHARMACEUTICAL CO., LTD., priority 2011, dated 2015).

The test concerns unilateral 6-OHDA-lesioned hemi-Parkinsonian rats. Nature of the test: Contralateral rotational behavior in unilateral 6-hydroxydopamine-lesioned hemi-parkinsonian rats. The class given is in vivo, rat (male Sprague-Dawley). The conditions noted are these: 10 mg/kg oral, fasted rats, observed up to 24 hours, mean; for Total number or rotations: contralateral rotations; for Duration: duration of contralateral rotation response. Here is the method: 6-OHDA was dissolved at 2 mg/mL in a physiolosical saline solution containing 0.2% L-ascorbic acid. Desipramine was dissolved at 10 mg/mL in a physiolosical saline solution in a hot-water bath. Apomorphine was dissolved at 0.1 mg/mL in a physiolosical saline solution. […] Test compounds were dissolved in a solution containing 2% DMA, 100 or 200 mol % hydrochloric acid, and 98% of a 0.5% methyl cellulose solution. […] (Eur J Pharmacol, 2000, vol. 408, P. 249-255) with a minor modification. Male Sprague-Dawley rats (6-weeks-old, Charles River Laboratories Japan Inc.) were anaesthetized with intraperitoneal somnopentyl (45 mg/kg) injection and placed in a stereotaxic frame (Narishige). In order to prevent 6-OHDA-induced damage of noradrenergic neurons, desipramine (25 mg/kg) was intraperitoneally injected 30 minutes before the 6-OHDA injection. After the bregma identification via a middle calvarial incision, the skull was drilled using a dental drill at the site of 6-OHDA injection. The lesion was made by injecting 6-OHDA (8 μg in 4 μL at a speed of 1 μL/minute) unilaterally into the left medial forebrain bundle by using a injection cannula (30 gauge needle) connected to a microsyringe (Hamilton) (the lesion coordinates; A/P −2.5 mm, L/M −1.8 mm, and V/D −8.0 mm, from the bregma point and surface of the skull). The cannula was carefully removed from the animal after keeping placed on the lesion site for 5 minutes. The skull was filled its hole with dental cement, disinfected, and the scalp incision was surgically sutured. Animals recovered from anesthesia were housed as usual until the day of the experiment. 3) Determining of Contralateral Rotational Behavior Three weeks after the lesion, rats were tested on the basis of their contralateral rotational behavior (single rotation was defined as a 360° turn) in response to 0.1 mg/kg apomorphine given subcutaneously. For behavioral observation, rats were placed in plastic cylinders of a diameter of 30 cm, and its contralateral rotational behaviors were videotaped and quantified by rat-rotation auto counting system R-RACS (Kissei Wellcom). On the experimental day, animals were fasted overnight, and test compounds were orally administrated at doses of 10 mg/kg. […] Total number of rotations and the duration of the response in experimental period were presented as mean value.

Structures are written as SMILES.

For `CCCCN(C(=O)NCCN(C)C)C(=O)[C@@H]1C[C@@H]2Cc3c(sc(N)c3C#N)C[C@H]2N(C)C1` (relative stereo) [1-24, 1-{[(4aR*,6R*,8aR*)-2-amino-3-cyano-8-methyl-4H,4aH,5H,6H,7H,8H,8aH,9H-thieno[3,2-g]quinolin-6-yl]carbonyl}-1-butyl-3-[2-(dimethylamino)ethyl]urea], the “Total number or rotations” value amounted to 5230.0 and the Duration came to 766.3 min.
For `CC(C)CCN(C(=O)NCCN(C)C)C(=O)[C@@H]1C[C@@H]2Cc3c(sc(N)c3C#N)C[C@H]2N(C)C1` (relative stereo) [1-43, 1-{[(4aR*,6R*,8aR*)-2-amino-3-cyano-8-methyl-4H,4aH,5H,6H,7H,8H,8aH,9H-thieno[3,2-g]quinolin-6-yl]carbonyl}-3-[2-(dimethylamino)ethyl]-1-(3-methylbutyl)urea], the “Total number or rotations” value is listed as 7557.5 and the Duration was 843.8 min.
For the compound `CCCCN(C(=O)NCCN1CCCCC1)C(=O)[C@@H]1C[C@@H]2Cc3c(sc(N)c3C#N)C[C@H]2N(C)C1` (relative stereo) [1-46, 1-{[(4aR*,6R*,8aR*)-2-amino-3-cyano-8-methyl-4H,4aH,5H,6H,7H,8H,8aH,9H-thieno[3,2-g]quinolin-6-yl]carbonyl}-1-butyl-3-[2-(piperidin-1-yl)ethyl]urea], the “Total number or rotations” value is given as 10329.8 and the Duration was determined as 1158.8 min.
Take `CCCN(C(=O)NCCN(C)C)C(=O)[C@@H]1C[C@@H]2Cc3c(sc(N)c3C#N)C[C@H]2N(C)C1` [1-1, 1-{[(4aR,6R,8aR)-2-amino-3-cyano-8-methyl-4H,4aH,5H, 6H,7H,8H,8aH,9H-thieno[3,2-g]quinolin-6-yl]carbonyl}-3-[2-(dimethylamino)ethyl]-1-propylurea]: the “Total number or rotations” value is 9431.8 and the Duration worked out at 1101.3 min.
Turning to `CCCCN(C(=O)NCCN(CC)CC)C(=O)[C@@H]1C[C@@H]2Cc3c(sc(N)c3C#N)C[C@H]2N(C)C1` [1-3, 1-{[(4aR,6R,8aR)-2-amino-3-cyano-8-methyl-4H,4aH,5H,6H,7H,8H,8aH,9H-thieno[3,2-g]quinolin-6-yl]carbonyl}-1-butyl-3-[2-(diethylamino)ethyl]urea], the “Total number or rotations” value is on record as 4478.3 and the Duration worked out at 845.0 min.
For `CCN(C(=O)NCC(C)(C)CN(C)C)C(=O)[C@@H]1C[C@@H]2Cc3c(sc(N)c3C#N)C[C@H]2N(C)C1` [1-4, 1-{[(4aR,6R,8aR)-2-amino-3-cyano-8-methyl-4H,4aH,5H,6H,7H,8H,8aH,9H-thieno[3,2-g]quinolin-6-yl]carbonyl}-3-[3-(dimethylamino)-2,2-dimethylpropyl]-1-ethlylurea], the “Total number or rotations” value was 6338.8 and the Duration worked out at 1131.3 min.
On the same counts, the results for `CCN(C(=O)N[C@@H](C)CN(C)C)C(=O)[C@@H]1C[C@@H]2Cc3c(sc(N)c3C#N)C[C@H]2N(C)C1` [1-57, 1-{[(4aR,6R,8aR)-2-amino-3-cyano-8-methyl-4H,4aH,5H,6H, 7H,8H,8aH,9H-thieno[3,2-g]quinolin-6-yl]carbonyl}-3-[(2S)-1-(dimethylamino)propan-2-yl]-1-ethylurea] are 9976.5 and 1190.0 min.
Consider `CCN(C(=O)NCCN(C)C)C(=O)[C@@H]1C[C@@H]2Cc3c(sc(N)c3C#N)C[C@H]2N(C)C1` [1-108, 1-{[(4aR,6R,8aR)-2-amino-3-cyano-8-methyl-4H,4aH,5H,6H,7H,8H,8aH,9H-thieno[3,2-g]quinolin-6-yl]carbonyl}-3-[2-(dimethylamino)ethyl]-1-ethylurea], for which the “Total number or rotations” value was determined as 2577.5 and the Duration was 698.8 min.
Take `CCCN(CCC)CCc1cccc2c1CC(=O)N2` [Ropinirole, ropinirole, reference compound]: the “Total number or rotations” value was found to be 276.3 and the Duration is 61.3 min.
